According to patent US20260108547A1, “LEVERAGING L-FUCOSE-MEDIATED SIGNALING TO INDUCE MONOCYTE-DERIVED DENDRITIC CELL POLARIZATION” (H. LEE MOFFITT CANCER CENTER AND RESEARCH INSTITUTE, INC., priority 2022, published 2026):

Assays:
SM1 tumors = assay: Flow cytometric profiling of tumors and draining lymph nodes, SM1 tumors in C57BL/6 mice fed ± L-fucose and treated ± anti-PD-1 (Table 2); assay type: in vivo, mouse
Description: (§1) Tumors of SW1 or SM1 melanoma cells from […] or C57BL/6 mice, respectively) were digested using 1× tumor digest buffer (0.5 mg/mL Collagenase I, 0.5 mg/mL Collagenase IV, 0.25 mg/mL Hyalyronidase V, 0.1 mg/mL DNAse I in HBSS (Millipore Sigma (St. Louis, MO)). Tumors were homogenized using the Miltenyi MACs dissociator. Red blood cells were lysed using ACK lysis buffer (Life Technologies, (Grand Island, NY)). Tumor homogenate cells were counted using a standard hemocytometer.
Total TILs were gated first to single cells (based on forward scatter height vs width, followed by side scatter height vs. width). Live cells were gated from the Zombie negative population from the population above. TILs were gated based on splenocyte size from a control spleen. Individual immune subpopulations were sub-gated from the total TIL population using the following staining criteria: CD3^+ for CD3^+ T cells; CD3^+/CD4^+/CD8^− for CD4^+T cells; CD3^+/CD4^−/CD8^+ for CD8^+ T cells, CD11c^+/CD11b^+ for DCs; either NK1.1 (for C57/BL6 mice) or DX5 (for C3H/HeJ) for NK cells; CD11b^+/GR1^+ for MDSC-like cells; and F4/80^+ for macrophages. Single-cell suspensions from tumor and spleen tissue were stained with Live/Dead Zombie NIR (Biolegend, (San Diego, CA)) at 1:1,000 in PBS for 20 min. […]

SW1 tumors = assay: itIC and splenic flow cytometric profiling, SW1 tumor-bearing C3H/HeN mice; assay type: in vivo, mouse; details: oral L-fuc; SW1 model
Description: as §1
Total TILs were gated first to single cells (based on forward scatter height vs width, followed by side scatter height vs. width). Live cells were gated from the Zombie negative population from the population above. TILs were gated based on splenocyte size from a control spleen. Individual immune subpopulations were sub-gated from the total TIL population using the following staining criteria: CD3^+ for CD3^+ T cells; CD3^+/CD4^+/CD8^− for CD4^+T cells; CD3^+/CD4^−/CD8^+ for CD8^+ T cells, CD11c^+/CD11b^+ for DCs; either NK1.1 (for C57/BL6 mice) or DX5 (for C3H/HeJ) for NK cells; CD11b^+/GR1^+ for MDSC-like cells; and F4/80^+ for macrophages. Single-cell suspensions from tumor and spleen tissue were stained with Live/Dead Zombie NIR (Biolegend, (San Diego, CA)) at 1:1,000 in PBS for 20 min. Cell suspensions were spun down and stained with the following with antibodies at 0.5 μg/ml per antibody: APC anti-mouse CD3, Pacific Blue anti-mouse CD4, BV785 anti-mouse CD8, PerCP anti-mouse CD25, FITC anti-mouse F4/80, PeCy7 anti-mouse CD11c, PE anti-mouse NK1.1 or PE anti-mouse DX5, and PerCP-Cy5.5 anti-mouse CD11b. After staining, the cells were washed and fixed (2% formaldehyde), followed by another wash and flow cytometric analysis. The compensation controls were prepared using 0.5 μg/mL of each antibody with UltraComp eBeads, (ThermoFisher Scientific (Waltham, MA)). All samples were subject to flow cytometric profiling using a LSR Flow Cytometer (BD Biosciences (San Jose, CA)) and analysis as indicated using FlowJo software (BD Biosciences (San Jose, CA)).

SMILES: C[C@H](O)[C@@H](O)[C@@H](O)[C@H](O)C=O [L-fucose]
- average # of cDC2 cells (SM1 tumors; Day 21, lymph nodes): 13997.11 per 10^6 cells
- intratumoral CD4+T central and effector memory cells (SM1 tumors; SM1 model, L-fuc alone): increased
- CD4+ and CD8+ T cells, most increased subpopulation of total itICs (SW1 tumors): doubled
- increased total itICs (SW1 tumors): 10-50 fold
- splenic lymphocyte profiles (SW1 tumors): without altering splenic lymphocyte profiles
